According to publication PMC9952374, “De Novo Design of Imidazopyridine-Tethered Pyrazolines That Target Phosphorylation of STAT3 in Human Breast Cancer Cells” (Bioengineering, 2023):

Assays:
[1] = tested on: MCF-7 cells; assay: Alamar Blue cell viability assay, MCF-7; format: cell-based, human; details: MCF-7 cell viability
Description: (§1) The goal herein was to assess the ability of imidazopyridine-tethered pyrazolines to inhibit cell viability in mammary carcinoma cells (using the Alamar Blue assay), since pyridine-fused pyrazoles were previously shown to inhibit cell viability in various breast cancer cells. […] The low chemical stability of thio-urea-based compounds may account for the inactivity of most thiourea-conjugated pyrazolines (excluding 4g) against TNBC cells.
(§2) MCF-7 cells were procured from Procell Life Science and Technology Co. LTD, Wuhan, China. Human breast cancer T47D, BT474, and SK-BR-3 cells were obtained from American Type Culture Collection (Washington, DC, NW, USA). Cells (2000) were cultured in MEM or Leibovitz’s L-15 medium enriched with 2% FBS and maintained in a humidified atmosphere of 5% CO2 at 37 °C. A stock solution of DMSO-dissolved compounds was prepared, and this solution was diluted with culture medium as required. MCF-7 Cells (4 × 10^3) were cultured in 96-well plates for 12 h and then treated for 72 h with compounds at concentrations of […]. Using Alamar Blue, the compounds were evaluated for their inhibitory effects
Figure 2 Inhibitory effect of compounds 3f (A), 3e (B), 4g (C), and 3g (D) on the viability of MCF-7 cells. MCF-7 cells were treated with various concentrations of 2-pyrazolines for 72 h and the viability of cells was analyzed by Alamar Blue assays. The results are presented as mean ± S.E.M. of triplicate determinations.

[2] = tested on: T47D cells; assay: Alamar Blue cell viability assay, T47D; format: cell-based, human; details: for IC50: Homo sapiens, T47D cell viability, Alamar Blue
Description: as §1, §2

[3] = tested on: BT-474 cells; assay: Alamar Blue cell viability assay, BT-474; format: cell-based, human; details: for IC50: Homo sapiens, BT-474 cell viability, Alamar Blue
Description: as §1, §2

[4] = tested on: SK-BR-3 cells; assay: Alamar Blue cell viability assay, SK-BR-3; format: cell-based, human; details: Homo sapiens, SK-BR-3 cell viability
Description: as §1, §2

[5] = tested on: MCF-10A cells; assay: Alamar Blue cell viability assay, normal MCF-10A; format: cell-based; details: Homo sapiens, normal MCF-10A cell viability
[6] = tested on: TNBC cells; assay: Effect against TNBC cells; format: cell-based; details: in words
Description: as §1

[7] = tested on: STAT3 phosphorylation in MCF-7 cells; assay: Western blot of STAT3 phosphorylation, MCF-7; format: cell-based, human
Method: (§3) Therefore, in vitro experiments were performed to evaluate the effect of compound 3f on the phosphorylation of STAT3 in MCF-7 and T47D cells, utilizing our laboratory protocol. For this purpose, Western blot analysis was performed after the treatment of MCF-7 and T47D cells with compound 3f (0, 1, 3, 5 μM) and using p-STAT3 (Tyr705), p-STAT3 (Ser727), and STAT3 antibodies for blotting.
(§4) As previously reported, whole-cell lysates from cells treated with compound 3f were prepared to detect protein expression and phosphorylation using a lysis buffer [Tris (20 mM, pH 7.4), NaCl (250 mM), EDTA (2 mM, pH 8.0), Triton X-100 (0.1%), aprotinin (0.01 mg/mL), leupeptin (0.005 mg/mL), phenylmethane sulfonyl fluoride (0.4 mM), and NaVO4 (4 mM)]. To remove insoluble material, lysates were centrifuged at 13,000 rpm for 15 min.
(§5) Equal protein concentrations of cell lysate were resolved on sodium dodecyl sulfate-polyacrylamide gel electrophoresis, followed by transfer to nitrocellulose membranes as reported previously. Incubation was carried out overnight at 4 °C with antibodies after treatment with 5% skim milk. Afterward, the membranes were washed, probed with HRP-conjugated secondary antibodies for 2 h, and then visualized using chemiluminescence.
(§6) Figure 3 The lead compound 3f decreases the phosphorylation of STAT3 in MCF-7 and T47D cells in a concentration (A) and time-dependent (B) manner. MCF-7 and T47D cells were treated with the indicated concentration of 3f for 4 h. MCF-7 and T47D cells were treated with 5 µM of compound for the indicated time intervals. Thereafter, equal amounts of lysates were analyzed by Western blot analysis using antibodies against p-STAT3(Tyr705), p-STAT3(Ser727), or STAT3. The expression of each protein was quantified. β-ACTIN was used as input control.

[8] = tested on: STAT3 phosphorylation in T47D cells; assay: Western blot of STAT3 phosphorylation, T47D; format: cell-based, human
Method: as §3, §4, §5, §6

[9] = tested on: nuclear translocation of STAT3 in MCF-7 cells; assay: Immunocytochemistry of STAT3 nuclear translocation, MCF-7; format: cell-based, human; details: MCF-7, immunocytochemistry, 10 μM for 4 h (method) / 5 μM (Figure 10 legend)
Method: (§7) Finally, we attempted to understand the effect of compound 3f on the blocking of pSTAT3 into nuclear functionally since pSTAT3 dimers could enter the nucleus to give transcription. For this purpose, we conducted an immunocytochemistry assay using MCF-7 and T47D cells. […] We also analyzed the distribution of phospho-STAT3 in the nucleus and cytoplasm using fluorescent-labeled antibodies.
(§8) As described earlier, STAT3 phosphorylation in cells was quantified. After compound 3f treatment (10 μM for 4 h), cells were fixed for 20 min with paraformaldehyde (4%). Thereafter, cells were treated with 0.2% Triton X-100 in phosphate-buffered saline for permeabilization, followed by blocking with 5% bovine serum albumin for 1 h. Then, the preparation was incubated overnight at 4 °C with a rabbit polyclonal anti-human STAT3 antibody (dilution, 1:100). […] The slides were mounted and analyzed under an Olympus FluoView FV1000 confocal microscope (Tokyo, Japan).
(§9) Figure 10 The nuclear localization of STAT3 in MCF-7 (A) and T47D (B) cells was inhibited by compound 3f. MCF-7 and T47D cells were treated with the compound 3f (5 μM), and then analyzed for intracellular distribution by immunocytochemistry. […] The fluorescence intensity of p-STAT3 and STAT3 was performed. […]

[10] = tested on: nuclear translocation of STAT3 in T47D cells; assay: Immunocytochemistry of STAT3 nuclear translocation, T47D; format: cell-based, human; details: 10 μM for 4 h (method) / 5 μM (Figure 10 legend)
Method: as §7, §8, §9

[11] = MCF-7, 5 µM, indicated time intervals
[12] = T47D, 5 µM, indicated time intervals

| SMILES | IC50 ([1]; Homo sapiens, MCF7, 72 h) | IC50 [2] | IC50 [3] | IC50 [4] | IC50 [5] | effect against TNBC cells [6] | melting point | further results |
| --- | --- | --- | --- | --- | --- | --- | --- | --- |
| Cc1ccc2nc(C)c(C3=NN(C(=S)Nc4ccc([N+](=O)[O-])cc4)C(c4cccc([N+](=O)[O-])c4)C3)n2c1 (centres unmarked) [Compound 4b, 3-(2,6-Dimethylimidazo[1,2-a]pyridin-3-yl)-5-(3-nitrophenyl)-N-(4-nitrophenyl)-4,5-dihydro-1H-pyrazole-1-carbothioamide] | 65.4 ± 1.82 µM | 45.6 ± 1.43 µM | 7.26 ± 0.54 µM | 69 ± 1.41 µM | > 100 µM | significant effect | 230 to 232 °C |  |
| Cc1ccc2nc(C)c(C3=NN(C(=O)CN4CCN(c5ccc(F)c(F)c5)CC4)C(c4cccc([N+](=O)[O-])c4)C3)n2c1 (centres unmarked) [Compound 3h, 2-(4-(3,4-Difluorophenyl)piperazin-1-yl)-1-(3-(2,6-dimethylimidazo[1,2-a]pyridin-3-yl)-5-(3-nitrophenyl)-4,5-dihydro-1H-pyrazol-1-yl)ethanone] | 19.6 ± 1.29 µM | 12.5 ± 1.01 µM | 3.06 ± 0.32 µM | 38.8 ± 1.42 µM | 6.27 ± 0.26 µM | significant effect | 192 to 194 °C |  |
| Cc1ccc2nc(C)c(C3=NN(C(=O)CN4CCN(C(=O)OC(C)(C)C)CC4)C(c4cccc([N+](=O)[O-])c4)C3)n2c1 (centres unmarked) [Compound 3b, Tert-butyl-4-(2-(3-(2,6-dimethylimidazo[1,2-a]pyridin-3-yl)-5-(3-nitrophenyl)-4,5-dihydro-1H-pyrazol-1-yl)-2-oxoethyl)piperazine-1-carboxylate] | 22.3 ± 1.35 µM | 15.2 ± 1.13 µM | 21.3 ± 1.32 µM | 28.3 ± 1.34 µM | > 100 µM |  | 166 to 168 °C |  |
| CC(=O)N1N=C(c2c(C)nc3ccc(C)cn23)CC1c1cccc([N+](=O)[O-])c1 (centres unmarked) [Compound 2, 1-(3-(2,6-Dimethylimidazo[1,2-a]pyridin-3-yl)-5-(3-nitrophenyl)-4,5-dihydro-1H-pyrazol-1-yl)ethanone] | > 100 µM | > 100 µM | 97.8 ± 1.76 µM | > 100 µM | > 100 µM |  | 166 to 168 °C |  |
| Cc1ccc2nc(C)c(C3=NN(C(=O)CN4CCC(=O)CC4)C(c4cccc([N+](=O)[O-])c4)C3)n2c1 (centres unmarked) [Compound 3a, 1-(2-(3-(2,6-Dimethylimidazo[1,2-a]pyridin-3-yl)-5-(3-nitrophenyl)-4,5-dihydro-1H-pyrazol-1-yl)-2-oxoethyl)piperidin-4-one] | 22.8 ± 1.36 µM | 23.3 ± 1.28 µM | 4.11 ± 0.41 µM | > 100 µM | > 100 µM |  | 170 to 172 °C |  |
| Cc1ccc2nc(C)c(C3=NN(C(=O)CN4CCN(c5cccc(Cl)c5Cl)CC4)C(c4cccc([N+](=O)[O-])c4)C3)n2c1 (centres unmarked) [Compound 3f, 2-(4-(2,3-Dichlorophenyl)piperazin-1-yl)-1-(3-(2,6-dimethylimidazo[1,2-a]pyridin-3-yl)-5-(3-nitrophenyl)-4,5-dihydro-1H-pyrazol-1-yl)ethanone] | 9.2 µM | 23.5 ± 1.25 µM | 13.9 ± 1.32 µM | > 100 µM | > 100 µM | significant effect | 122 to 124 °C | IC50 ([1]; 72 h): 9.27 ± 0.97 µM; viability of T47D cells ([2]; in words): inhibited in a dose-dependent manner; viability of BT-474 cells ([3]; in words): inhibited in a dose-dependent manner; phosphorylation level of STAT3 at Ser727, dose dependence ([7]; MCF-7, 0, 1, 3, 5 μM, 4 h): reduced the phosphorylation level; phosphorylation level of STAT3 at Tyr705, dose dependence ([7]; MCF-7, 0, 1, 3, 5 μM, 4 h): reduced the phosphorylation level; total STAT3 protein expression ([7]; MCF-7, 0, 1, 3, 5 μM, 4 h): without affecting the total STAT3 protein expression; phosphorylation of STAT3 at Ser727, time dependence [7, 11]: reduced the phosphorylation; phosphorylation of STAT3 at Tyr705, time dependence [7, 11]: reduced the phosphorylation; phosphorylation level of STAT3 at Ser727, dose dependence ([8]; T47D, 0, 1, 3, 5 μM, 4 h): reduced the phosphorylation level; phosphorylation level of STAT3 at Tyr705, dose dependence ([8]; T47D, 0, 1, 3, 5 μM, 4 h): reduced the phosphorylation level; total STAT3 protein expression ([8]; T47D, 0, 1, 3, 5 μM, 4 h): without affecting the total STAT3 protein expression; phosphorylation of STAT3 at Ser727, time dependence [8, 12]: reduced the phosphorylation; phosphorylation of STAT3 at Tyr705, time dependence [8, 12]: reduced the phosphorylation; nuclear translocation of STAT3 [9]: inhibited the nuclear translocation; nuclear translocation of pSTAT3 [9]: block the nuclear translocation; nuclear translocation of STAT3 [10]: inhibited the nuclear translocation; nuclear translocation of pSTAT3 [10]: block the nuclear translocation |
| CC(=O)N1CCN(CC(=O)N2N=C(c3c(C)nc4ccc(C)cn34)CC2c2cccc([N+](=O)[O-])c2)CC1 (centres unmarked) [Compound 3d, 2-(4-Acetylpiperazin-1-yl)-1-(3-(2,6-dimethylimidazo[1,2-a]pyridin-3-yl)-5-(3-nitrophenyl)-4,5-dihydro-1H-pyrazol-1-yl)ethanone] | 21 ± 1.32 µM | > 100 µM | 8.04 ± 0.47 µM | 32.1 ± 1.46 µM | > 100 µM |  | 208 to 210 °C |  |
| Cc1ccc2nc(C)c(C3=NN(C(=S)Nc4cc(C(F)(F)F)cc(C(F)(F)F)c4)[C@@H](c4cccc([N+](=O)[O-])c4)C3)n2c1 [Compound 4g, N-(3,5-Bis(trifluoromethyl)phenyl)-3-(2,6-dimethylimidazo[1,2-a]pyridin-3-yl)-5-(3-nitrophenyl)-4,5-dihydro-1H-pyrazoline-1-carbothioamide] | 10.9 ± 1.01 µM | > 100 µM | > 100 µM | > 100 µM | > 100 µM |  | 230 to 232 °C |  |
| Cc1ccc2nc(C)c(C3=NN(C(=O)CN4CCN(c5ccc(Cl)cc5)CC4)C(c4cccc([N+](=O)[O-])c4)C3)n2c1 (centres unmarked) [Compound 3e, 2-(4-(4-Chlorophenyl)piperazin-1-yl)-1-(3-(2,6-dimethylimidazo[1,2-a]pyridin-3-yl)-5-(3-nitrophenyl)-4,5-dihydro-1H-pyrazol-1-yl)ethanone] | 13.2 ± 1.12 µM | 29.9 ± 1.05 µM | 17.6 ± 0.87 µM | 39.1 ± 1.46 µM | 38.3 ± 1.44 µM |  | 180 to 182 °C |  |
